Assay results as given in PubChem BioAssay AID651677 (The Scripps Research Institute Molecular Screening Center, 2012).
Several values for one entry are separate records, joined by “and”; a condition that tells them apart may be missing. Equal values may be shown once. Activity calls are given as the source filed them. How the calls were made is not given here.

Each molecule was assayed against Perilipin-5 (Homo sapiens) + 1-acylglycerol-3-phosphate O-acyltransferase ABHD5 (Homo sapiens) (UniProt Q00G26+Q8WTS1) (assay: blockers of ABHD5 binding to perilipin-5 – biochemical, luminescence, dose response (AID 651677)). Conditions: ABHD5-PLIN5 interaction.
Chain of Perilipin-5 (Homo sapiens) + 1-acylglycerol-3-phosphate O-acyltransferase ABHD5 (Homo sapiens) (Q00G26 whole entry, looked up): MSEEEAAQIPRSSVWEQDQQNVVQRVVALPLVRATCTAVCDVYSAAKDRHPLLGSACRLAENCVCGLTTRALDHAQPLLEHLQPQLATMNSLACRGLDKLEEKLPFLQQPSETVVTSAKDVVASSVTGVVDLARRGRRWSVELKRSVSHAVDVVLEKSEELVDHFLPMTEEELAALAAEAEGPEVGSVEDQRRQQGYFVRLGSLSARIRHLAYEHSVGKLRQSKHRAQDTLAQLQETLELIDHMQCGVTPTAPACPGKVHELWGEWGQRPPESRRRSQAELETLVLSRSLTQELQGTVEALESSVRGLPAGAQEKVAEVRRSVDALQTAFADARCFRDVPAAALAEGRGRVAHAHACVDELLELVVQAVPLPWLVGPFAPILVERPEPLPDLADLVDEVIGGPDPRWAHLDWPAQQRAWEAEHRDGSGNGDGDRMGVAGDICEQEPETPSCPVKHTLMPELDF
Chain of Perilipin-5 (Homo sapiens) + 1-acylglycerol-3-phosphate O-acyltransferase ABHD5 (Homo sapiens) (Q8WTS1 whole entry, looked up): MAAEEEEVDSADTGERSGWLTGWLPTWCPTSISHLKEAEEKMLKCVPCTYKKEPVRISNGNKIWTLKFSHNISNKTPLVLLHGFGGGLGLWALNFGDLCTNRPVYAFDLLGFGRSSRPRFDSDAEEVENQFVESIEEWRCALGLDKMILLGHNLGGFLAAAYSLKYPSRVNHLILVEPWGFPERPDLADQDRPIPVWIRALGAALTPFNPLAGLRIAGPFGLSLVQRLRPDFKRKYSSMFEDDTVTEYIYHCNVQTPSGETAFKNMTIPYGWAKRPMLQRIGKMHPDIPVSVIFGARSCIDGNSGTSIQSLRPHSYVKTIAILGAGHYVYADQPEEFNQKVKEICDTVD
With Cc1ccc(C(=O)c2coc3c2C(=O)C(=O)c2ccccc2-3)cc1 the IC50 was 2530 nM. In the case of CC1=CC2C(C(O)CC3(C)C2CC(C)C32OCOC23COCO3)C2(C)C/C(=C\O)C(=O)C=C12 (centres undefined), the IC50 is reported as 3270 nM. CC(=O)Oc1c(Cl)cc(N(C(C)=O)S(=O)(=O)c2ccccc2)c2ccccc12 showed an IC50 of 6550 nM. With CC(C)(C)NC(=O)C(C1CC1)n1c(=O)c(-c2ccco2)nc2ccccc21 (centres undefined) the IC50 was 2740 nM. COc1ccccc1C=CC(=O)C=Cc1ccccc1OC was tested, and the IC50 was 4790 nM. CCCCCNC(=O)C(c1ccc(C(F)(F)F)cc1)n1c(=O)c(-c2ccco2)nc2ccccc21 (centres undefined) showed an IC50 of 1820 nM. CCCCCNC(=O)C(c1ccc(OC)cc1)n1c(=O)c(-c2ccco2)nc2ccccc21 (centres undefined) showed an IC50 of 2180 nM. Cc1cccc(C)c1OCc1cn(CC(=O)c2ccc(O)cc2)nn1 was tested, and the IC50 was 2830 nM. O=[N+]([O-])/C=C/c1cn(Cc2ccc(F)cc2)c2ccccc12 showed an IC50 of 3360 nM. Molecule COc1cc(C(C)=O)ccc1OCc1cn(CC(=O)c2ccc(O)cc2)nn1 has an IC50 of 4430 nM. COc1ccc(C(C(=O)NC2CCCCC2)n2c(=O)c(-c3ccco3)nc3ccccc32)cc1 (centres undefined) showed an IC50 of 1140 nM. Work on CN(C)CCCN(C(=O)CCc1ccccc1)c1nc2ccc(Cl)cc2s1 yielded an IC50 of 7370 nM. O=C(/C(=C/O)N=Nc1ccc(Cl)cc1)c1ccncc1 showed an IC50 of 8340 nM. With CC1=CC(C)(C)Nc2ccc(OC(=O)c3cccnc3)cc21 the IC50 was 2230 nM. With CCOC(=O)/C(=C\c1ccc(Cl)cc1)c1nc2sc(C)c(C)c2c(=O)[nH]1 the IC50 was 750 nM. Work on O=C(O)CC(O)(CC(=O)O)C(=O)O yielded an IC50 of 5630 nM. CSC(=Nc1ccccc1)N=C(SCc1ccccc1)N(C)C was tested, and the IC50 was 1170 nM. In the case of CC(=O)Nc1ccc(S(=O)(=O)N2c3ccc(F)cc3CCC2C)cc1 (centres undefined), the IC50 is reported as “inactive”. In the case of O=C(NC1CCCCC1)C(c1ccc(-c2ccccc2)cc1)n1c(=O)c(-c2ccco2)nc2ccccc21 (centres undefined), the IC50 is reported as 1540 nM. Cc1cccc(C)c1NC(=O)C(c1ccc(C(F)(F)F)cc1)n1c(=O)c(-c2ccco2)nc2ccccc21 (centres undefined) gave an IC50 of 2220 nM. With CN(C)CCOc1ccc(-c2c(-c3ccccc3)sc3ccccc23)cc1 the IC50 was “inactive”. Molecule CCN(CC)CCOCCOC(=O)C1(c2ccccc2)CCCC1 has an IC50 of 2030 nM. For CCC1(C)N=C(c2ccc3c(c2)OCO3)CC(c2ccccc2O)N1 (centres undefined), the IC50 was 1570 nM. COc1ccc(/C=C/C(=O)c2cc(F)ccc2OC(=O)c2ccc(OC)c(OC)c2)cc1OC showed an IC50 of 2740 nM. C#CCN(C[C@@H]1[C@@H](OC(=O)NCc2ccccc2F)[C@@H](OC(=O)NCc2ccccc2F)Cn2c(=O)ccc(=O)n21)S(=O)(=O)c1ccc(C)cc1 showed an IC50 of 5040 nM. With CC(C)(C)NC(=O)C(c1ccccc1)n1c(=O)c(-c2ccco2)nc2ccccc21 (centres undefined) the IC50 was 2160 nM. For O=C(NC1CCCCC1)C(c1ccc(C(F)(F)F)cc1)n1c(=O)c(-c2ccco2)nc2ccccc21 (centres undefined), the IC50 was 1250 nM. Work on CC(C)(C)NC(=O)C(c1ccc(-c2ccccc2)cc1)n1c(=O)c(-c2ccco2)nc2ccccc21 (centres undefined) yielded an IC50 of 1290 nM. Cc1ccc(NC(=O)CSc2nnc(-c3ccco3)c(-c3ccco3)n2)cc1 gave an IC50 of 1180 nM. In the case of COc1cc(/C=C/C(=O)c2ccc(Cl)s2)cc(OC)c1O, the IC50 is reported as 4480 nM. CSc1nnc(NC(=O)c2nc(S(=O)(=O)Cc3cccc(C)c3)ncc2Cl)s1 showed an IC50 of 2690 nM. With C#CCN(C[C@@H]1[C@@H](OC(=O)NCC2CCCCC2)[C@@H](OC(=O)NCC2CCCCC2)Cn2c(=O)ccc(=O)n21)S(=O)(=O)c1ccc(C)cc1 the IC50 was 3600 nM. In the case of Cc1ccc(S(=O)(=O)N2C[C@@]3(O)Cn4c(=O)ccc(=O)n4C[C@@]3(OC(=O)NCC3CCCCC3)C2)cc1, the IC50 is reported as 3990 nM. For O=C(NC1CCCCC1)C(C1CC1)n1c(=O)c(-c2ccco2)nc2ccccc21 (centres undefined), the IC50 was 2380 nM. Cc1ccc(O)c(C(=O)/C=C/c2ccc3c(c2)OCCCO3)c1 was tested, and the IC50 was 4130 nM. Work on O=C1NC(=O)N(Cc2ccc(F)cc2)C(=O)/C1=C\C=C\c1ccco1 yielded an IC50 of 1360 nM. In the case of COc1ccc(NC(=O)C(c2ccccc2)n2c(=O)c(-c3ccco3)nc3ccccc32)cc1 (centres undefined), the IC50 is reported as 8790 nM. CC(=O)Cc1cc(O)c2ccccc2c1OC(=O)c1ccccc1 showed an IC50 of 1960 nM. Cc1nnc(NC(=O)c2nc(S(=O)(=O)Cc3ccccc3C)ncc2Cl)s1 showed an IC50 of 2710 nM. In the case of Cc1ccc(CS(=O)(=O)c2ncc(Cl)c(C(=O)Nc3nnc(C(C)C)s3)n2)cc1, the IC50 is reported as 1380 nM. CN(C)CCCNC(=O)c1ccc(-c2nc(-c3ccc(Cl)cc3)cs2)cc1 was tested, and the IC50 was “inactive”. Cc1cccc(NC(=O)CSc2nnc(-c3ccco3)c(-c3ccco3)n2)c1 was tested, and the IC50 was 1050 nM. With CN1CCC[C@@H]1CCO[C@](C)(c1ccccc1)c1ccc(Cl)cc1 the IC50 was “inactive”. With Cc1oc2c(c1C(=O)c1ccc(Cl)cc1)C(=O)C(=O)c1ccccc1-2 the IC50 was 1980 nM. With O=C1CC(c2ccc(Cl)cc2)Oc2ccc(Cl)cc21 (centres undefined) the IC50 was 2840 nM. Work on CCOc1cc(/C=C2\CCC/C(=C\c3cc(Cl)c(O)c(OCC)c3)C2=O)cc(Cl)c1O yielded an IC50 of 4160 nM. Cc1cc(C)c(NC(=O)C[N+](C)(C)CC(O)COc2cccc3ccccc23)c(C)c1 (centres undefined) was tested, and the IC50 was 7490 nM. For O=C(Nc1ccc2c(c1)OCCO2)C(c1ccnc2ccccc12)n1c(=O)c(-c2ccco2)nc2ccccc21 (centres undefined), the IC50 was “inactive”. Cc1nc2c(o1)CCc1ccccc1C2N1CCN(C)CC1 (centres undefined) was tested, and the IC50 was 8830 nM. With O=C(/C=C/Sc1ccccc1)c1ccc(Cl)cc1 the IC50 was 3380 nM. In the case of O=C(/C(=C/c1ccccc1)n1cncn1)c1ccc(Cl)cc1Cl, the IC50 is reported as 2490 nM. In the case of Cc1cccc(C)c1NC(=O)C(c1cccc2ccccc12)n1c(=O)c(-c2ccco2)nc2ccccc21 (centres undefined), the IC50 is reported as 1810 nM. Work on CC(C)(C)NC(=O)C(c1cccc2ccccc12)n1c(=O)c(-c2ccco2)nc2ccccc21 (centres undefined) yielded an IC50 of 2390 nM. Work on CCOC(=O)c1c(C)oc2c1c(CN1CCN(CCO)CC1)c(O)c1ccccc12 yielded an IC50 of 1810 nM. O=c1[nH]c(C2CCN(S(=O)(=O)c3ccc(F)cc3)CC2)nc2c1nnn2Cc1ccc2c(c1)OCCO2 was tested, and the IC50 was “inactive”. With FC(F)(F)c1cccc(NC(=S)N(CCCN2CCCC2)Cc2cccn2Cc2ccc(Cl)cc2)c1 the IC50 was “inactive”. Molecule CCCCCNC(=O)C(c1ccc(C#N)cc1)n1c(=O)c(-c2ccco2)nc2ccccc21 (centres undefined) has an IC50 of 3150 nM. N#Cc1ccc(C(C(=O)Nc2ccc3c(c2)OCCO3)n2c(=O)c(-c3ccco3)nc3ccccc32)cc1 (centres undefined) was tested, and the IC50 was 7270 nM. CC(=O)Cc1cc(O)c2ccccc2c1OC(=O)c1ccc(Br)cc1 showed an IC50 of 2520 nM. Work on O=C(Nc1ccc(Cl)cc1)/C(=C/c1cccc(O)c1)c1nc2ccccc2s1 yielded an IC50 of 2100 nM. With Cc1ccc(/C(O)=C2/C(=O)C(=O)OC2c2ccc(Cl)cc2)cc1 (centres undefined) the IC50 was 9720 nM. Molecule COc1ccccc1-c1cc(C(=O)NC2CCN(C)CC2)c2ccc(Cl)c(C)c2n1 has an IC50 of 7180 nM. With COc1cc(C)c2sc3ccccc3c(=O)c2c1NCCN(C)C the IC50 was 3840 nM. In the case of O=C(NCc1ccccc1)C(c1ccccc1F)n1c(=O)c(-c2ccco2)nc2ccccc21 (centres undefined), the IC50 is reported as 2270 nM. In the case of O=C(NCc1ccccc1)C(c1ccc(-c2ccccc2)cc1)n1c(=O)c(-c2ccco2)nc2ccccc21 (centres undefined), the IC50 is reported as 2700 nM. CCCCOC(=O)Nc1cc(C(=O)OC)ccc1C(=O)OC was tested, and the IC50 was 6700 nM. With N#Cc1ncc(Cc2ccccc2)nc1C#N the IC50 was 8580 nM. Work on O=CC1=C(c2ccccc2)Oc2ccccc2O1 yielded an IC50 of 3520 nM. CC1(C)C2CCC(CN=C(N)CSS(=O)(=O)O)C1C2 (centres undefined) gave an IC50 of 4270 nM. In the case of CN1C(=O)/C(=C/C=C/c2ccco2)C(=O)NC1=S, the IC50 is reported as 2960 nM. In the case of NC(=NCCCCCCN=C(N)/N=C(\N)Nc1ccc(Cl)cc1)/N=C(\N)Nc1ccc(Cl)cc1, the IC50 is reported as 3820 nM and 1660 nM. Cc1cccc(C)c1NC(=O)C(c1ccncc1)n1c(=O)c(-c2ccco2)nc2ccccc21 (centres undefined) was tested, and the IC50 was “inactive”. With Cc1nc(-c2ccccc2)sc1C(=O)/C=C/c1ccccc1 the IC50 was 2790 nM. N#Cc1ccccc1OCc1cn(CC(=O)c2ccc(O)cc2)nn1 was tested, and the IC50 was 3680 nM.
